According to patent publication US11064704B2, “Natural product formulations with improved residual insect repellent/deterrent activity” (University of Mississippi, priority 2016, dated 2021):

What was measured:
Aedes aegypti females = experiment: in vitro A&K (Ali and Khan) repellent bioassay; format: in vivo; settings: for residual repellent activity: time post treatment within range of MED: 11.7 μg/cm^2; for residual repellent activity: time post treatment up to which active / after which MED limit crossed: 23.4 μg/cm^2
Description: The A&K (Ali and Khan) bioassay system is based on the concept that the mosquitoes are attracted to warm temperatures, and this system uses warm temperature to serve as stimulus for landing and feeding. The details of the A&K bioassay systems are given in Ali et al. (2017).
In summary, this in vitro system consisted of a 30×30×30 cm collapsible aluminum cage (Model 1450B, BioQuip Products, 2321 Gladwick Street, Rancho Dominguez, Calif. 90220, USA) with metal screens. On one panel of the cage, metal screen was replaced with a clear acrylic transparent sheet. […] The blood box had three sides covered with acrylic sheet while the front side was open to insert the feeding device. […] The sliding door served to contain the females inside the cage when the feeding device was pulled out for loading the treatment. This door was slid open when the feeding device was pushed in during the bioassay to expose the females to the treatment.
The feeding device had one 3×4 cm rectangular reservoir that contained the feeding solution. The feeding device was connected to the water circulator. The reservoir of the feeding device with feeding solution was covered with a chemical treated collagen sheet. To observe the landing and feeding of female mosquitoes, feeding solution in the reservoir was heated to match the human body temperature using a water circulator which was set at 37° C. The feeding solution had 3-4° C. higher temperature than the solid platform, and this increased temperature of the feeding solution became a better source of attraction and preference for the mosquitoes than the other parts of the feeding device.
The rectangular reservoir of the feeding device was filled with the CPDA 1+ATP solution having a few drops of green fluorescent traceable water-soluble dye to serve as a feeding source. A test was started when the 3×4 cm marked areas of collagen were treated with the desired chemical in a volume of 50 μL/[…]. The treated collagen sheet was then secured on the reservoir using a thin layer of high vacuum grease (Dow Corning Corporation, Midland, Mich. 48686). The feeding device was then pushed into the blood box and the sliding door was opened to expose females to the treatment.
Stock solutions were made in ethanol. All the dilutions were made in EtOH and applied in a volume of 50 μL covering […] of the collagen sheet. Minimum effective dosage (MED) values in this in vitro bioassay were determined using a method described by Katritzky et al. (2010).
The cage contained 200±10, 8-18 day old female mosquitoes. The number of mosquitoes landing and biting were recorded visually for 1 minute. Three or four cages were used at a time, and one treatment was evaluated in a single cage. The minimum dose at which 2 or less mosquitoes (i.e. less than or equal to 1% of 200 females in the cage) started feeding in 1 minute was the minimum effective dose (“MED”). Continuous exposure of the mosquitoes in the cage can result in reduced landing and biting, therefore, 3-4 cages were used and only one replication was completed for each chemical in a single cage. To ensure accuracy of the treatment, rectangular areas of (3×4 cm (12 cm^2) or 7.5×4 cm (30 cm^2) were marked on the collagen that matched the measurement of the rectangular liquid reservoirs. Treatments were applied in a volume of 50 μL (12 cm^2 area) or 107 μL (30 cm^2 area). Treated collagen sheets were secured on a feeding reservoir containing CPDA-1+ATP solution using a thin layer of grease (Dow Corning Corp, Midland, Mich.). The feeding device was pushed inside the blood box and the sliding door was […] to expose the females to the treatment.
To ensure the normal activity (≥10% landing), control treatment was repeated after every 5 replications, and the bioassay was stopped if the response was less than the control. The data is presented as MED values with the mean percentage biting (±SEM) in parenthesis. […]

mosquitoes = experiment: in vivo direct skin application bioassay
Protocol: Direct skin application bioassays were conducted by using a powder-free latex glove (Diamond Grip, Microflex Corporation, Reno, Nev.). An opening of 3×4 cm was cut through the glove to fit on dorsal surface of the hand (FIG. 1). After wearing the glove, a wristband was used to avoid the biting on the hand near the border of the glove. Approximately, 500 (±5%), consisting primarily of females were transferred to a test cage (45×45×45 cm) using an aspirator. A series of dosages were tested to determine MED for repellency as well as residual activity against mosquitoes. A single test consisted of covering the hand of a volunteer with a powder-free latex glove and treating 12 cm^2 surface area, cut through the glove, on dorsal surface of the hand. Marked skin surface area was treated with the test compound in 50 μl of total volume. Because of constrain of man power, only one volunteer who was provided with a written informed consent participated in this study. A protocol approved by the University of Mississippi Human Use Institutional Review Board (IRB protocol #15-070) was followed.
The test started when the hand treated (3×4 cm area cut through the glove on the dorsal surface) with a test compound was inserted into the mosquito cage. […] Any treatment with […] females biting during 1 min test period was considered as “passed” whereas a treatment with ≥5 bites out of 500 mosquitoes was considered as “failed”. In case of passing the next lower and in case of failure next higher serial dose was tested to reach MED. Additionally, data on the residual repellent activity was recorded by exposing the treatments to the females after every 30 minutes until the treatment failed. Carrot essential oil, carotol and DEET and the mixtures were tested.
Direct skin application bioassays were conducted by using a powder-free latex glove (Diamond Grip™, Microflex Corporation, Reno, Nev.). An opening of 3×4 cm was cut through the glove to fit on the dorsal surface of the hand. After donning the glove, a wristband was used to avoid biting on the hand near the border of the glove. Approximately 500 (±5%) mosquitoes, consisting primarily of females, were transferred to a test cage (45×45×45 cm) using an aspirator. A series of dosages were tested to determine MED for repellency as well as residual activity against mosquitoes.
A single test consisted of covering the hand of a volunteer with a powder-free latex glove and treating a 12 cm^2 surface area, cut through the glove, on the dorsal surface of the hand. Marked skin surface area was treated with the test compound in 50 μl of total volume. Because of constraints of man power, only one volunteer who was provided with a written informed consent participated in this study. A protocol approved by the University of Mississippi Human Use Institutional Review Board (IRB Protocol #15-070) was followed.
The test started when the hand treated (3×4 cm area cut through the glove on the dorsal surface) with a test compound was inserted into the mosquito cage. […] Any treatment with ≤5 females biting during the 1 min test period was considered as “passed”, whereas a treatment with ≥5 bites out of 500 mosquitoes was considered as “failed”. In case of passing, the next lower, and in case of failure, the next higher, serial dose was tested to reach MED. Additionally, data on the residual repellent activity were recorded by exposing the treatments to the females after every 30 minutes until the treatment failed. Carrot seed essential oil, carotol, geranium and lemon Eucalyptus essential oils, DEET, picaridin and the mixtures were tested.

[1] = 12 cm^2 surface area, Table 7/FIG. 7
[2] = Table 13/FIG. 13, mixtures 6.25+6.25 μg/cm^2 versus individual applications, species not given

CC1=CC[C@]2(C)CC[C@@H](C(C)C)[C@]2(O)CC1 [carotol]
residual repellent activity: time post treatment within range of MED (Aedes aegypti females): failed
residual repellent activity: time post treatment up to which active / after which MED limit crossed (Aedes aegypti females): 60 min
residual repellent activity: time post treatment up to which active (Aedes aegypti females; 46.9 μg/cm^2): 120 min
minimum effective dose (MED) (Aedes aegypti females; [1]): 11.7 μg/cm^2
minimum effective dose (MED) (Aedes aegypti females; [2]): 25 μg/cm^2
repellent activity (Aedes aegypti females; compared with DEET): comparable to DEET
residual activity: time post application at which MED reached (mosquitoes; 8% application rate): 1.5 h
residual activity: time post application at which MED reached/crossed (mosquitoes; 12.5% application rate): 1.5 h
residual activity: time post application at which MED reached (mosquitoes; 25% application rate): 2 h
residual activity: time post application at which MED reached (mosquitoes; 50% application rate): 2.5 h

CCN(CC)C(=O)c1cccc(C)c1 [DEET, N,N-diethyl-meta-toluamide, reference compound]
residual repellent activity: time post treatment within range of MED (Aedes aegypti females): 30 min
residual repellent activity: time post treatment up to which active / after which MED limit crossed (Aedes aegypti females): 120 min
minimum effective dose (MED) (Aedes aegypti females; [1]): 11.7 μg/cm^2
minimum effective dose (MED) (Aedes aegypti females; [2]): 25 μg/cm^2
residual activity: time post application at which MED level crossed (mosquitoes; 1% rate of application): 1 h
residual activity: time post application at which MED level crossed (mosquitoes; 2% rate of application): 1 h
